Molecules are shown by their SMILES.

In one test the target is Tubulin (Bos taurus) (UniProt Q6B856+Q862L2+Q862F3). Put plainly: Ratio of ED50 for microtubule polymerization to ED50 for paclitaxel; Relative paclitaxel ED50 = 1.0. Format: functional.
The test system of the next test is B16. Put plainly: Ratio of ED50 of compound for B16 melanoma cytotoxicity to that of ED50 of paclitaxel; Relative paclitaxel ED50 = 1.0. Format: functional, Mus musculus.
A further test relates to P388. Kind of test: Compound was tested for in vitro cytotoxicity against P388 cells. It counts as functional, Mus musculus.

On to `CC(=O)O[C@H]1C(=O)[C@]2(C)[C@@H](O)CC3OC[C@@]3(OC(C)=O)[C@H]2[C@H](OC(=O)c2ccc([N+](=O)[O-])cc2)[C@]2(O)C[C@H](OC(=O)[C@H](O)[C@@H](NC(=O)c3ccccc3)c3ccccc3)C(C)=C1C2(C)C` (some centres not stated), for which, at Tubulin (Bos taurus), the Ratio is greater than 8.8.
Turning to `CC(=O)O[C@H]1C(=O)[C@]2(C)[C@@H](O)CC3OC[C@@]3(OC(C)=O)[C@H]2[C@H](OC(=O)c2ccc(Cl)cc2)[C@]2(O)C[C@H](OC(=O)[C@H](O)[C@@H](NC(=O)c3ccccc3)c3ccccc3)C(C)=C1C2(C)C` (some centres not stated), the Ratio with B16 was 3.1; at Tubulin (Bos taurus), 0.79.
On to `COc1ccc(C(=O)O[C@H]2[C@H]3[C@](C)(C(=O)[C@H](OC(C)=O)C4=C(C)[C@@H](OC(=O)[C@H](O)[C@@H](NC(=O)c5ccccc5)c5ccccc5)C[C@]2(O)C4(C)C)[C@@H](O)CC2OC[C@]23OC(C)=O)cc1` (some centres not stated), for which the Ratio in the test on B16 is 22; on Tubulin (Bos taurus) it was 6.
For `CC(=O)O[C@H]1C(=O)[C@]2(C)[C@@H](O)CC3OC[C@@]3(OC(C)=O)[C@H]2[C@H](OC(=O)c2cccc(Cl)c2)[C@]2(O)C[C@H](OC(=O)[C@H](O)[C@@H](NC(=O)c3ccccc3)c3ccccc3)C(C)=C1C2(C)C` (some centres not stated), the values for the Ratio with B16 and on Tubulin (Bos taurus) were 0.57 and 1.1, respectively. This molecule displayed an Activity in the test with P388 of 0.81.
Taken in the same sequence, the figures for `CC(=O)O[C@H]1C(=O)[C@@]2(C)[C@H]([C@H](OC(=O)c3ccccc3)[C@]3(O)C[C@H](OC(=O)[C@H](O)[C@@H](NC(=O)c4ccccc4)c4ccccc4)C(C)=C1C3(C)C)[C@]1(OC(C)=O)CO[C@@H]1C[C@@H]2O` [PACLITAXEL] were 1, 1 and 1.
As to `CC(=O)O[C@H]1C(=O)[C@]2(C)[C@@H](O)CC3OC[C@@]3(OC(C)=O)[C@H]2[C@H](OC(=O)c2cccc(C)c2)[C@]2(O)C[C@H](OC(=O)[C@H](O)[C@@H](NC(=O)c3ccccc3)c3ccccc3)C(C)=C1C2(C)C` (some centres not stated), the Ratio in the test on B16 is 1.6; at Tubulin (Bos taurus), 1.7.
For `CC(=O)O[C@H]1C(=O)[C@]2(C)[C@@H](O)CC3OC[C@@]3(OC(C)=O)[C@H]2[C@H](OC(=O)c2ccc(C)cc2)[C@]2(O)C[C@H](OC(=O)[C@H](O)[C@@H](NC(=O)c3ccccc3)c3ccccc3)C(C)=C1C2(C)C` (some centres not stated), in that order: 5.1 and 1.6.
For `CC(=O)O[C@H]1C(=O)[C@]2(C)[C@@H](O)CC3OC[C@@]3(OC(C)=O)[C@H]2[C@H](OC(=O)c2ccccc2C)[C@]2(O)C[C@H](OC(=O)[C@H](O)[C@@H](NC(=O)c3ccccc3)c3ccccc3)C(C)=C1C2(C)C` (some centres not stated), in that order: 0.84 and 1.1.
On to `CC(=O)O[C@H]1C(=O)[C@]2(C)[C@@H](O)CC3OC[C@@]3(OC(C)=O)[C@H]2[C@H](OC(=O)c2cccc(C(F)(F)F)c2)[C@]2(O)C[C@H](OC(=O)[C@H](O)[C@@H](NC(=O)c3ccccc3)c3ccccc3)C(C)=C1C2(C)C` (some centres not stated), for which the results for the Ratio in the test with B16 and on Tubulin (Bos taurus) were 2.7 and 0.64, respectively.
Taken in the same sequence, the figures for `CC(=O)O[C@H]1C(=O)[C@]2(C)[C@@H](O)CC3OC[C@@]3(OC(C)=O)[C@H]2[C@H](OC(=O)c2cccc([N+](=O)[O-])c2)[C@]2(O)C[C@H](OC(=O)[C@H](O)[C@@H](NC(=O)c3ccccc3)c3ccccc3)C(C)=C1C2(C)C` (some centres not stated) were 0.73 and 1.3.
Taken in the same sequence, the figures for `CC(=O)O[C@H]1C(=O)[C@]2(C)[C@@H](O)CC3OC[C@@]3(OC(C)=O)[C@H]2[C@H](OC(=O)c2cc(Cl)cc(Cl)c2)[C@]2(O)C[C@H](OC(=O)[C@H](O)[C@@H](NC(=O)c3ccccc3)c3ccccc3)C(C)=C1C2(C)C` (some centres not stated) were 1.8 and 0.98.
Taken in the same sequence, the figures for `CC(=O)O[C@H]1C(=O)[C@]2(C)[C@@H](O)CC3OC[C@@]3(OC(C)=O)[C@H]2[C@H](OC(=O)c2ccc(Cl)c(Cl)c2)[C@]2(O)C[C@H](OC(=O)[C@H](O)[C@@H](NC(=O)c3ccccc3)c3ccccc3)C(C)=C1C2(C)C` (some centres not stated) were 2.7 and 0.45.
Take `CC(=O)O[C@H]1C(=O)[C@]2(C)[C@@H](O)CC3OC[C@@]3(OC(C)=O)[C@H]2[C@H](OC(=O)c2ccc(F)cc2)[C@]2(O)C[C@H](OC(=O)[C@H](O)[C@@H](NC(=O)c3ccccc3)c3ccccc3)C(C)=C1C2(C)C` (some centres not stated): the Ratio in the test on B16 was greater than 36; on Tubulin (Bos taurus), 3.2.

These data come from ChEMBL document CHEMBL1128118, “Synthesis of biologically active 2-benzoyl paclitaxel analogues” (1995).
